Results taken from patent publication US9738610B2, “Indazole derivatives and uses thereof” (Whitehead Institute for Biomedical Research, priority 2012, dated 2017).
Where two headings read alike, the source gives them in different places.

Legend:
C. albicans CaCi-8 = experiment: microbe, parasite or virus in culture; format: cell-based, Candida albicans
Description: This subset was re-subjected to the primary assay and was also tested concurrently in two secondary assays. Secondary assay 1 measured chemosensitization of the more resistant CaCi-8 strain. Secondary assay 2 eliminated anything with inherently antifungal activity. […] A final assay (secondary assay 3) was incorporated to discard any compound displaying toxicity to mammalian fibroblasts. […] This screening campaign is also illustrated in FIG. 3B.
Those that inhibited growth in the resistant strain were also tested for toxicity against Candida in the absence of fluconazole and for toxicity against mammalian cells using a fluorescence reporter assay. The positive control for screening in the Candida and mammalian cell assays was the Hsp90 inhibitor geldanamycin (acting in concert with fluconazole; FIG. 4). Compounds that passed these four hurdles were binned through use of a Saccharomyces assay to determine whether the mechanism of action might be through the Hsp90 pathway, the calcineurin pathway, or an uncategorized mechanism.

C. albicans CaCi-2 [1] = experiment: CaCi-2 growth inhibition in the presence of 8 μg/ml fluconazole (Alamar Blue); format: cell-based, Candida albicans
Description: Fluconazole was obtained from Sequoia Research Products, Ltd. and prepared in a 2 mg/ml stock solution in phosphate buffered saline (PBS). […] PBS (Catalog No. 21-040-CV) without calcium and magnesium was obtained from Cellgro. Penicillin/Streptomycin (Pen/Strep) was obtained from Gibco and prepared 100× in PBS.
RPMI medium (1×) was prepared by dissolving 10.4 g powdered medium in 800 ml water. A buffer of 34.52 g MOPS was added. While stirring, pH was adjusted to 7.0 with 10 N NaOH. Next, 10 ml uridine solution and 50 ml glucose solution were added. The final volume was adjusted to 1000 ml, and filter sterilized.
The following yeast strains were used in this study: C. albicans CaCi-2. Fungal inoculum was prepared as follows: 500 μl of strain was inoculated from cryopreserved stock into a 250-ml shaker flask containing 30 ml growth medium and shaken overnight at 30° C. The optical density (OD 600) of 1 ml fungal culture in a cuvette was read using a standard optical density reader (Eppendorf BioPhotometer Plus), with growth medium as a background blank. The desired volume of fungal inoculums was diluted to desired volume of fungal inoculums according to the following formula: (1/OD measured)×(Desired Final Volume of Inoculum)×0.3=Volume of fungal culture (μl) to add to desired volume of growth medium. When added to media in wells, this yields a calculated starting OD of the fungal inoculum of 0.00015.
Fluconazole stock solution was added to the fungal inoculum to achieve 8 μg/ml. Pen/Strep was added to the media to a 1% concentration (v/v). A Thermo Combi nL was used to dispense 20 μl/well of assay media into all wells. Geldanamycin was dispensed in positive control wells using Thermo Combi nL for a final concentration of 3 μM. Then, 100 nl of test compound was pinned from compound plates into assay plates using a CyBi-Well pin tool. A further 20 μl/well of culture was dispensed into the assay media in all wells. The plates were incubated in a humidified (90% humidity) Liconic incubator at 37° C. without agitation for 48 hours. Alamar Blue was diluted 1:40 in Ca/Mg-free PBS. To all plates, […] of the diluted Alamar Blue was added to the plates to a final dilution factor of 1:200. The plates were incubated for an additional 2 hours. Then, Relative Fluorescence Intensity (RFU) of each well was read on standard plate reader as a measure of relative fungal growth.

C. albicans CaCi-2 [2] = experiment: Secondary single-agent (no-fluconazole) activity assay; format: cell-based, Candida albicans; conditions: in the absence of fluconazole; read-out: Target Potency (μM) Mean ± S.E.M CaCi-2^b IC50
Description: Clear, flat-bottom, black, 384-well plates were obtained from Corning. […] Pen/Strep was obtained from Gibco and prepared 100× in PBS. Fluconazole was obtained from Sigma and prepared in 2 mg/ml stock solution in PBS. Alamar Blue was obtained from Biosource International (Catalog No. DAL1100). Phosphate buffered solution (PBS) without calcium and magnesium was obtained from Cellgro.
Fungal inoculum was prepared as follows: 500 μl of yeast was inoculated from cryopreserved stock into a 250-ml shaker flask containing 30 ml growth medium and shaken overnight (16 hours) at 30° C. The culture was spun down, and the broth was poured off and washed with RPMI medium. The culture was spun down again, and the broth was poured off and resuspended in RPMI medium. The OD 600 of 1 ml of fungal culture in a cuvette was read using a standard optical density reader with growth medium as a background blank. The desired volume of fungal inoculum was diluted to starting OD of the fungal inoculum of 0.00015 A600.
Pen/Strep was added to the media to a final 1% concentration. A Combi NL (Thermo) was used to dispense 20 μl/well of assay media into all wells. Geldanamycin (1.5 mM) and fluconazole (0.2 mg/ml) were mixed for the positive control. Then, 80 nl of positive control solution was dispensed into the positive control wells using Thermo Combi nL for a final concentration of 3 μM geldanamycin and 8 μg/ml fluconazole. Then, 100 nl of test compound were pinned from the compound plates into assay plates using a CyBi-Well pin tool. A further 20 μl/well of RPMI synthetic defined medium culture was dispensed into 384-well, black plates. Fungal suspension (20 μl/well) was dispensed into all wells. The plates were incubated in a humidified (90% humidity) Liconic incubator at 37° C. without agitation for 48 hours. Alamar Blue Reagent was diluted 1:40 in Ca/Mg-free PBS. To all plates, 6.4 μl/well of the diluted Alamar Blue was added to the plates to a final dilution factor of 1:200. The plates were incubated for 2 hours at room temperature. Next, RFU of wells was read on a standard plate reader as a measure of relative fungal growth.

Plasma protein binding = conditions: % bound in human plasma
Plasma stability = conditions: % remaining in human plasma after a 5-hour incubation
[3] = 37° C., 48 hours, with 8 μg/mL (26 μM) fluconazole, average of at least three experiments
[4] = 37° C., 48 hours, with 8 μg/mL (26 μM) fluconazole, average of at least three experiments, read-out: CaCi-8 IC50
[5] = 37° C., 48 hours, with 8 μg/mL (26 μM) fluconazole, average of at least three experiments, read-out: CaCi-2 IC50
[6] = Table 12, read-out: CaCi-8 IC50 with 8 μg/ml fluconazole
[7] = in the presence of fluconazole, read-out: Target Potency (μM) Mean ± S.E.M CaCi-8^a IC50

Structure (SMILES) | CaCi-8 IC50 (μM) (C. albicans CaCi-8; [3]) | CaCi-2 IC50 (μM) (C. albicans CaCi-2 [1]; [3]) | IC50 (C. albicans CaCi-8; [4]) [µM] | IC50 (C. albicans CaCi-2 [1]; [5]) [µM] | further results
COC(=O)Cn1nc(-c2ccccc2)c2cccnc21 | inactive | inactive | – | – | –
COC(=O)Cn1nc(C(C)(C)C)c2ccccc21 | inactive | inactive | – | – | –
COC(=O)Cn1nc(C2CC2)c2ccccc21 | Inactive | inactive | – | – | –
COC(=O)Cn1nc(C2CCCCC2)c2ccccc21 | – | – | 6 ± 1.7 | 2.3 ± 0.3 | –
COC(=O)Cn1nc(-c2cnco2)c2ccccc21 | inactive | inactive | – | – | –
COC(=O)Cn1nc(-c2cscn2)c2ccccc21 | inactive | – | – | 12.9 ± 1.7 | –
COC(=O)Cn1nc(-c2cccc(C)c2)c2ccccc21 [CID 49835823] | – | – | – | – | IC50 (C. albicans CaCi-8; [6]): 1.3 µM; IC50 (C. albicans CaCi-2 [1]; in the presence of fluconazole, read-out: CaCi-2 growth inhibition IC50): 0.65 µM
COC(=O)Cn1nc(-c2cccc(F)c2)c2ccccc21 [CID 49835858] | – | – | – | – | IC50 (C. albicans CaCi-8; [6]): 2.1 µM; IC50 (C. albicans CaCi-2 [1]; Table 12, read-out: CaCi-2 IC50 with 8 μg/ml fluconazole): 1.4 µM
COC(=O)Cn1nc(-c2ccccc2)c2cc(F)ccc21 [Compound 5-F] | inactive | – | – | 11.2 ± 7.2 | –
COC(=O)Cn1nc(-c2ccccc2)c2cc(C)ccc21 [Compound 5-Me] | – | – | 8.2 ± 3.2 | 5.2 ± 2.2 | –
COC(=O)Cn1nc(-c2ccccc2)c2cc(OC)ccc21 [Compound 5-OMe] | – | – | 22.1 ± 6.2 | 14.9 ± 5.7 | –
COC(=O)Cn1nc(-c2ccccc2)c2ccc(C(F)(F)F)cc21 [Compound 6-CF3] | inactive | inactive | – | – | –
COC(=O)Cn1nc(-c2ccccc2)c2ccc(C#N)cc21 [Compound 6-CN] | inactive | inactive | – | – | –
COC(=O)Cn1nc(-c2ccccc2)c2ccc(Cl)cc21 [Compound 6-Cl] | – | – | 8.4 ± 0.5 | 4 ± 1.3 | –
COC(=O)Cn1nc(-c2ccccc2)c2ccc(C)cc21 [Compound 6-Me] | inactive | – | – | 5.9 ± 3.1 | –
COC(=O)Cn1nc(-c2ccccc2)c2ccc(OC)cc21 [Compound 6-OMe] | – | – | 12.4 ± 0.5 | 9.5 ± 2.5 | –
COC(=O)Cn1nc(-c2ccccc2)c2cccc(C(F)(F)F)c21 [Compound 7-CF3] | inactive | inactive | – | – | –
COC(=O)Cn1nc(-c2ccccc2)c2cc(OC)ccc21 [Compound 49835837] | – | – | – | – | IC50 (C. albicans CaCi-8; [7]): 18.5 µM; IC50 (C. albicans CaCi-2 [2]): > 26 µM; Plasma Protein Binding (Plasma protein binding): PBS Solubility: <1.0 μM Plasma Protein Binding: <1.0% Plasma Stability: <1.0% Purity (UPLC): >99%; Plasma Stability (Plasma stability): PBS Solubility: <1.0 μM Plasma Protein Binding: <1.0% Plasma Stability: <1.0% Purity (UPLC): >99%
CC(C)(C)OC(=O)Cn1nc(-c2ccccc2)c2ccccc21 [Compound 49835839] | – | – | – | – | IC50 (C. albicans CaCi-8; [7]): > 26 µM; IC50 (C. albicans CaCi-2 [2]): > 26 µM; Plasma Protein Binding (Plasma protein binding): > 99%; Plasma Stability (Plasma stability): 85%
CCCCn1nc(-c2ccccc2)c2ccccc21 [Compound 49835848] | – | – | – | – | IC50 (C. albicans CaCi-8; [7]): > 26 µM; IC50 (C. albicans CaCi-2 [2]): > 26 µM; Plasma Protein Binding (Plasma protein binding): > 99%; Plasma Stability (Plasma stability): 81%

Structure (SMILES) | CaCi-8 IC50 (μM) (C. albicans CaCi-8; [3]) | CaCi-2 IC50 (μM) (C. albicans CaCi-2 [1]; [3]) | IC50 (C. albicans CaCi-8; [4]) [µM] | IC50 (C. albicans CaCi-2 [1]; [5]) [µM] | further results
COC(=O)Cn1nc(-c2ccccc2)c2ccc(C(F)(F)F)cc21 [Compound 49835849] | – | – | – | – | IC50 (C. albicans CaCi-8; [7]): 32.1 µM; IC50 (C. albicans CaCi-2 [2]): > 26 µM; Plasma Protein Binding (Plasma protein binding): 62%; Plasma Stability (Plasma stability): 1.7%
COC(=O)Cn1nc(-c2ccc(C#N)cc2)c2ccccc21 [Compound 49835863] | – | – | – | – | IC50 (C. albicans CaCi-8; [7]): 20 µM; IC50 (C. albicans CaCi-2 [2]): > 26 µM; Plasma Protein Binding (Plasma protein binding): 92%; Plasma Stability (Plasma stability): < 1.0%
O=C(Cn1nc(-c2ccccc2)c2ccccc21)OC1CCC1 [Compound 49835870] | – | – | – | – | IC50 (C. albicans CaCi-8; [7]): > 26 µM; IC50 (C. albicans CaCi-2 [2]): > 26 µM; Plasma Protein Binding (Plasma protein binding): > 99%; Plasma Stability (Plasma stability): 2.0%
COC(=O)C(C)(C)n1nc(-c2ccccc2)c2ccccc21 [Compound 49835873] | – | – | – | – | IC50 (C. albicans CaCi-8; [7]): > 26 µM; IC50 (C. albicans CaCi-2 [2]): > 26 µM; Plasma Protein Binding (Plasma protein binding): > 99%; Plasma Stability (Plasma stability): 63%
COC(=O)Cn1nc(-c2ccccc2)c2ccccc21 [Compound I-16, methyl 3-phenyl-1H-indazole acetate] | – | – | – | – | IC50 (C. albicans CaCi-2 [1]; Candida albicans, CACI2, Table 12, read-out: CaCi-2 IC50 with 8 μg/ml fluconazole): 1.8 µM
COC(=O)Cn1nc(-c2ccc(C)cc2)c2ccccc21 [Cpd 30] | – | – | 19.5 ± 14.2 | 4.8 ± 2.5 | –
COC(=O)Cn1nc(-c2ccc(OC)cc2)c2ccccc21 [Cpd 31] | – | – | 14.1 ± 6.4 | 4.2 ± 1.7 | –
COC(=O)Cn1nc(-c2ccc(F)cc2)c2ccccc21 [Cpd 32] | – | – | 12.3 ± 3.9 | 8.3 ± 2.8 | –
COC(=O)Cn1nc(-c2ccc(C(F)(F)F)cc2)c2ccccc21 [Cpd 33] | inactive | inactive | – | – | –
COC(=O)Cn1nc(-c2ccc(C#N)cc2)c2ccccc21 [Cpd 34] | – | inactive | 20.5 ± 0.3 | – | –
COC(=O)Cn1nc(-c2cccc(C)c2)c2ccccc21 [Cpd 35] | – | – | 1.9 ± 0.9 | 1.1 ± 0.6 | –
COC(=O)Cn1nc(-c2cccc(OC)c2)c2ccccc21 [Cpd 36] | – | – | 1.5 ± 0.6 | 0.7 ± 0.3 | –
COC(=O)Cn1nc(-c2cccc(N(C)C)c2)c2ccccc21 [Cpd 37] | – | – | 2 ± 0.2 | 0.8 ± 0.1 | –
COC(=O)Cn1nc(-c2cccc(F)c2)c2ccccc21 [Cpd 38] | – | – | 4.2 ± 4.1 | 1.7 ± 0.4 | –
COC(=O)Cn1nc(-c2ccccc2C)c2ccccc21 [Cpd 39] | – | – | 7.8 ± 2.6 | 5.3 ± 0.5 | –
COC(=O)Cn1nc(-c2ccccc2OC)c2ccccc21 [Cpd 40] | – | – | 11.4 ± 1.7 | 9.3 ± 3.6 | –
COC(=O)Cn1nc(-c2cc(OC)cc(OC)c2)c2ccccc21 [Cpd 41] | inactive | inactive | – | – | –
COC(=O)Cn1nc(-c2cccnc2)c2ccccc21 [drawing 228] | inactive | – | – | – | CaCi-2 IC50 (μM) (C. albicans CaCi-2 [1]): inactive
COC(=O)Cn1nc(-c2cncnc2)c2ccccc21 [drawing 229] | – | inactive | 21.1 ± 3.3 | – | –
CCc1nn(CC(=O)OC)c2ccccc12 [—Et] | inactive | inactive | – | – | –
